Legend:
salmon lice = system: salmon lice; set-up: species or system Lepeophteirus salmonis; settings: in vivo
[1] = cited from earlier work

In the case of COc1cc(CNC(=O)CCCC/C=C/C(C)C)ccc1O [capsaicin], the “effect on the lice” value (salmon lice) is listed as “has an effect”, the “sum of the effects on lice of each agent on its own versus the combination of capsaicin and acetic acid” value (salmon lice) is listed as “considerably lower” and the “solubility in ethanol and other hydrophobic solvents” value ([1]; pure capsaicin) is listed as “soluble”. The solubility in water ([1]; water) was “not soluble”.
